# Test results from patent US20200078379A1, “DEFEROXAMINE DERIVATIVES AS MEDICAMENTS” (BIOTECHNOLOGICKY USTAV AV CR, V.V.I., priority 2017, published 2020).
# Read-outs that look alike come from different tables or passages of the source.
# Assays:
# [1] = tested on: tamoxifen-resistant MCF7 (Tam5R); assay: crystal violet assay, tamoxifen resistant cells; format: cell-based; details: Homo sapiens, grown in 5 μM tamoxifen
# Description: (§1) Compound 1 and compound 2 were tested in their efficacy to kill malignant MCF7 cancer cells. Briefly, 10.000 cells per well were seeded in a 96-well plat on one day and the next day selected compounds were added and incubated with the cells for 48 hrs. The cells were then fixed with 4% paraformaldehyde, stained with 0.05% crystal violet, washed with PBS, and solubilized in 1% SDS. The absorbance of the plate at 595 nm was then measured, quantifying the number of viable cells.
# (§2) To test whether compound 2 is active against resistant cancer cells, we used tamoxifen-resistant MCF7, T47D and BT474 cell lines. The IC50 values were again measured with the crystal violet assay performed as in example 18. We have documented that there is no statistically significant difference in the ability of compound 2 to induce cytostatic and cytotoxic effects between the parental cells sensitive to tamoxifen and the resistant ones that grow even in the presence of tamoxifen (Table 4).
# [2] = tested on: tamoxifen-resistant T47D (Tam5R); assay: crystal violet assay, tamoxifen resistant cells; format: cell-based; details: Homo sapiens, grown in 5 μM tamoxifen
# Description: as §1, §2
# [3] = tested on: tamoxifen-resistant BT474 (Tam5R); assay: crystal violet assay, tamoxifen resistant cells; format: cell-based; details: Homo sapiens, BT-474, grown in 5 μM tamoxifen
# Description: as §1, §2
# BxPC-3 cells = assay: crystal violet assay, cellular viability; format: cell-based; details: Homo sapiens, BxPC-3, 48 hours
# MCF7 cells [4] = assay: cellular proliferation in real time, Xcelligence technology; format: cell-based
# Description: The ability of compound 2 to affect the proliferation and cell death induction in real time was monitored by the Xcelligence technology that detects changes in electrical impedance related to the cell number. In brief, special 16-well e-plates containing gold electrodes were filled with medium, blank values were recorded, and then 5.000 cells per well were seeded in the plate and let to attach for 2 hours, followed by the addition of compounds. The electrical impedance was then monitored over time in real-time every 15 minutes. In this case a line is drawn that reflects the cell number over time. […] We have seen a clear inhibition of proliferation with compound 2 at 1 μM, complete block of proliferation at 2 μM concentration, while the cytotoxic effect is seen at 5 μM (Table 9).
# MCF7 cells [5] = assay: individual cell movement, Juli FL and Image J; format: cell-based, human
# Description: Additionally, cells seeded identically as in example 26, were treated with 1 to 5 μM concentrations of compound 2 and movie was recorded via the Juli FL system, enabling monitoring of individual movement of cells. The movement was then analyzed by the Image J program to gain the average travelled distance within a specified time. We detected a significant reduction of the total length of travelled trajectory when cells were exposed to compound 2 (Table 12)
# [6] = tested on: human triple negative breast cancer cells line MDA-MB-231; assay: tumor growth in vivo, MDA-MB-231 model; parameters: species or system NOD-SCID gamma mice; details: for Relative tumor size: MDA-MB-231, 8 mg/kg i.p. twice per week
# Description: In order to define the effect of compound 2 on tumor growth and progression in vivo, we tested its effect on the model of human triple negative breast cancer cells line MDA-MB-231, NOD-SCID gamma mice being the immunodeficient host. Mice were injected with 1 million of cells s.c. on the right flank. After appearance of tumors (15-60 mm^3) mice were randomized into three separate group, one receiving corn oil (control) and two compound 2 in a dose of 1 mg/kg or 8 mg/kg. Tumor progression was then monitored by ultrasound imaging Vevo770 and mice received the treatment twice per week, i.p. in approximately 100 ul of corn oil.
# AsPC-1 cells = assay: crystal violet assay, cellular viability; format: cell-based; details: Homo sapiens, ASPC1, AsPC-1, 48 hours
# MCF7 cells [7] = assay: cellular migration into scratch, JULI FL; format: cell-based, human
# Description: (§3) In order to test the effect of compound 2 on cellular migration, we have seeded MCF7 or MDA-MB-231 cells in 12 well plates, let them reach confluence and then introduced a scratch in the monolayer with a 10 μl pipette tip.
# MDA-MB-231 cells = assay: cellular migration into scratch, JULI FL; format: cell-based, human
# Description: as §3
# SK-OV-3 cells = assay: crystal violet assay, cellular viability; format: cell-based; details: Homo sapiens, SK-OV-3, 48 hours
# non malignant cells (BJ) = assay: AnnexinV/PI cell death assay; format: cell-based; details: for mean percentage of dead cells (AnnexinV/PI): 48 hrs
# Description: To confirm such findings by an independent method, cell death-inducing potency (cytotoxic efficacy) of DFO and compound 2 have been tested via annexin V/PI staining commonly used as a measure of apoptotic/necrotic cell death. Briefly, cells were seeded in 12-well plate at 100,000 per well, incubated with the selected compounds for 48 hours, then floating cells were spun, adherent cells trypsinized and spun as well followed by the staining with AnnexinV-FITC and PI probes. Cells were then washed with PBS and measured via Fluorescence Activated Sorter.
# We have then analyzed the percentage of death cells by the annexinV/PI staining as described in example 7. We have observed a significant potentiation in cell death induction when gallium was combined with compound 2 (Table 14)
# BT474 cells = assay: crystal violet assay, cellular viability; format: cell-based; details: for IC50: Homo sapiens, BT-474
structure (smiles),measurement,setting,value
"CC(=O)N(O)CCCCCNC(=O)CCC(=O)N(O)CCCCCNC(=O)CCC(=O)N(O)CCCCCN(CCCCCCCCCC[P+](c1ccccc1)(c1ccccc1)c1ccccc1)CCCCCCCCCC[P+](c1ccccc1)(c1ccccc1)c1ccccc1.[Cl-].[Cl-] [Compound 2, Triphenyl(3,14,25-trihydroxy-2,10,13,21,24-pentaoxo-31-(10-(triphenylphosphonio)decyl)-3,9,14,20,25,31-hexaazahentetracontan-41-yl)phosphonium chloride]",IC50,[1],2.1 µM
same,IC50,[2],1.2 µM
same,IC50,[3],4.2 µM
same,IC50,BxPC-3 cells,1.7 µM
same,slope of the line (relative number of cells in relation to time),"MCF7 cells [4]; MCF7, 0-15 h, 1 μM",0.32
same,slope of the line (relative number of cells in relation to time),"MCF7 cells [4]; MCF7, 0-15 h, 2 μM",0.40
same,slope of the line (relative number of cells in relation to time),"MCF7 cells [4]; MCF7, 0-15 h, 5 μM",0.31
same,slope of the line (relative number of cells in relation to time),"MCF7 cells [4]; MCF7, 0-36 h, 1 μM",0.35
same,slope of the line (relative number of cells in relation to time),"MCF7 cells [4]; MCF7, 0-36 h, 2 μM",−0.01
same,slope of the line (relative number of cells in relation to time),"MCF7 cells [4]; MCF7, 0-36 h, 5 μM",−0.47
same,concentration at which the cytotoxic effect is seen,"MCF7 cells [4]; Xcelligence, MCF7",5 µM
same,concentration with clear inhibition of proliferation,"MCF7 cells [4]; Xcelligence, MCF7",1 µM
same,concentration with complete block of proliferation,"MCF7 cells [4]; Xcelligence, MCF7",2 µM
same,speed of the movement,"MCF7 cells [5]; MCF7, 1 μM",0.16 (0.06) μm*min^−1
same,travelled distance of an individual cell between frames,"MCF7 cells [5]; MCF7, 1 μM",4.4 (1.4) μm
same,speed of the movement,"MCF7 cells [5]; MCF7, 2 μM",0.13 (0.05) μm*min^−1
same,travelled distance of an individual cell between frames,"MCF7 cells [5]; MCF7, 2 μM",3.9 (1.5) μm
same,speed of the movement,"MCF7 cells [5]; MCF7, 5 μM",0.12 (0.07) μm*min^−1
same,travelled distance of an individual cell between frames,"MCF7 cells [5]; MCF7, 5 μM",3.1 (0.7) μm
same,"effect on relative tumor growth, in words","[6]; MDA-MB-231, 8 mg/kg",significantly reduces relative tumor growth
same,Relative tumor size,[6]; Day 0,1.0
same,Relative tumor size,[6]; Day 4,1.3
same,Relative tumor size,[6]; Day 7,1.8
same,Relative tumor size,[6]; Day 11,2.6
same,Relative tumor size,[6]; Day 14,3.5
same,Relative tumor size,[6]; Day 18,5.3
same,Relative tumor size,[6]; Day 21,7.9
same,IC50,AsPC-1 cells,2.6 µM
same,mean percentage of non-invaded portion of the scratch,"MCF7 cells [7]; MCF7, 0 h, 1 μM",100 (4.1) %
same,mean percentage of non-invaded portion of the scratch,"MCF7 cells [7]; MCF7, 0 h, 2 μM",100 (4.8) %
same,mean percentage of non-invaded portion of the scratch,"MCF7 cells [7]; MCF7, 0 h, 5 μM",100 (4.4) %
same,mean percentage of non-invaded portion of the scratch,"MCF7 cells [7]; MCF7, 24 h, 1 μM",78.8 (5.2) %
same,mean percentage of non-invaded portion of the scratch,"MCF7 cells [7]; MCF7, 24 h, 2 μM",79.2 (1.1) %
same,mean percentage of non-invaded portion of the scratch,"MCF7 cells [7]; MCF7, 24 h, 5 μM",83.8 (0.6) %
same,mean percentage of non-invaded portion of the scratch,"MCF7 cells [7]; MCF7, 48 h, 1 μM",61.8 (5.3) %
same,mean percentage of non-invaded portion of the scratch,"MCF7 cells [7]; MCF7, 48 h, 2 μM",66.1 (1.1) %
same,mean percentage of non-invaded portion of the scratch,"MCF7 cells [7]; MCF7, 48 h, 5 μM",78.8 (0.6) %
same,mean percentage of non-invaded portion of the scratch,"MDA-MB-231 cells; MDA-MB-231, 0 h, 1 μM",100 (5.5) %
same,mean percentage of non-invaded portion of the scratch,"MDA-MB-231 cells; MDA-MB-231, 0 h, 2 μM",100 (7.4) %
same,mean percentage of non-invaded portion of the scratch,"MDA-MB-231 cells; MDA-MB-231, 0 h, 5 μM",100 (6.5) %
same,mean percentage of non-invaded portion of the scratch,"MDA-MB-231 cells; MDA-MB-231, 24 h, 1 μM",40.7 (8.9) %
same,mean percentage of non-invaded portion of the scratch,"MDA-MB-231 cells; MDA-MB-231, 24 h, 2 μM",42.7 (8.0) %
same,mean percentage of non-invaded portion of the scratch,"MDA-MB-231 cells; MDA-MB-231, 24 h, 5 μM",48.4 (8.9) %
same,mean percentage of non-invaded portion of the scratch,"MDA-MB-231 cells; MDA-MB-231, 48 h, 1 μM, cells started to die at 48 hrs",61.7 (6.7) %
same,mean percentage of non-invaded portion of the scratch,"MDA-MB-231 cells; MDA-MB-231, 48 h, 2 μM, cells started to die at 48 hrs",76.2 (13.3) %
same,mean percentage of non-invaded portion of the scratch,"MDA-MB-231 cells; MDA-MB-231, 48 h, 5 μM, cells started to die at 48 hrs",98.5 (9.1) %
same,IC50,SK-OV-3 cells,5.1 µM
same,mean percentage of dead cells (AnnexinV/PI),non malignant cells (BJ); 5 μM,6.7%
same,mean percentage of dead cells (AnnexinV/PI),non malignant cells (BJ); 10 μM,9.0%
same,mean percentage of dead cells (AnnexinV/PI),non malignant cells (BJ); 20 μM,29.8%
same,concentrations at which toxic effect could be detected in non-malignant BJ cells,"non malignant cells (BJ); AnnexinV/PI, 48 hours",higher than 2004
same,percentage of death cells by annexinV/PI staining,"non malignant cells (BJ); ratio Ga:compound 2 0:1, 10 μM compound 2 alone",9.0 (3.5)
same,Selectivity index (IC50 non-malignant/IC50 malignant),"BT474 cells; BJ vs BT474, 48 hours",4.33
same,IC50,"BT474 cells; BT474, 48 hours, crystal violet, read-out: IC50 cellular viability",3.3 µM
same,IC50,"BT474 cells; BT474 Parental, read-out: IC50 crystal violet",3.3 µM
